According to patent US8889671B2, “Compounds and methods for treating bacterial infections” (AstraZeneca AB, priority 2013, dated 2014):
pIC50: −log10 of the molar value. ≈ marks a conversion by molar mass, not a printed value. Where two headings read alike, the source gives them in different places.

Tests used:
Haemophilus influenzae = test: Susceptibility testing (MIC) Assay 2, broth microdilution; format: cell-based
Klebsiella pneumoniae = test: as above; format: cell-based
Escherichia coli = test: as above; format: cell-based
Pseudomonas aeruginosa = test: as above; format: cell-based; conditions: PAO1, read-out: Pae MIC
Streptococcus pyogenes = test: Susceptibility testing (MIC) Assay 1, broth microdilution; format: cell-based; conditions: Streptococcus pyogenes, in vivo strain, read-out: Spy MIC
Streptococcus pneumoniae = test: as above; format: cell-based
Staphylococcus aureus = test: as above; format: cell-based; conditions: Staphylococcus aureus
[1] = target: Escherichia coli DNA gyrase A/B tetramer (Escherichia coli (strain K12), UniProt P0AES4+P0AES6); test: DNA gyrase supercoiling activity fluorescence polarisation assay; format: biochemical; conditions: Eco Gyr FP Mean IC50, E. coli DNA gyrase supercoiling, 0.3 mM ATP
Summary of the method: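 IC50 derived by nonlinear regression from BODIPY-FL fluorescence anisotropy, read 60 min after quenching with labelled triplex-forming probe (pH 3.5). Reaction: 5 nM gyrase tetramer, 130 micrograms/mL relaxed plasmid, 0.3 mM ATP, 4 mM MgCl2, pH 7.5, typically 30 min at ambient temperature, 5-10 compound concentrations.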

Neisseria gonorrhoeae = test: MIC against 100 N. gonorrhoeae isolates, CLSI reference agar dilution; format: cell-based; conditions: all 100 N. gonorrhoeae isolates
[2] = tested on: 7 S. aureus strains and 1 strain of Streptococcus pyogenes; test: Minimum bactericidal concentration (MBC); format: cell-based, Staphylococcus aureus; Streptococcus pyogenes; conditions: 7 S. aureus strains and 1 S. pyogenes strain
[3] = tested on: variants of S. aureus and S. pyogenes ARC838; test: Susceptibility of Example 5 serial-passage variants to comparators; format: cell-based, Staphylococcus aureus; Streptococcus pyogenes; conditions: variants after twenty passages with Example 5
[4] = ATCC51907, Haemophilus influenzae, ATCC 51907, in vivo strain, read-out: Hin MIC
[5] = clinical isolate, mucoid, read-out: Kpn MIC
[6] = in vivo strain (footnote b), read-out: Spn(b) MIC
[7] = in vivo strain (footnote c), read-out: Spn(c) MIC
[8] = Staphylococcus aureus in vivo strain, MSQS, read-out: Sau(d) MIC
[9] = in vivo strain, MRQR, read-out: Sau(e) MIC
[10] = ATCC49247, Haemophilus influenzae, ATCC 49247, read-out: Hin MIC
[11] = ATCC700603, ATCC 700603, read-out: Kpn(e) MIC
[12] = clinical isolate, mucoid, read-out: Kpn(d) MIC
[13] = ATCC25922, Escherichia coli, in vivo strain, ATCC 25922, read-out: Eco(b) MIC
[14] = ATCC35218, Escherichia coli, ATCC 35218, read-out: Eco(c) MIC
[15] = ATCC49619, Streptococcus pneumoniae, ATCC 49619, read-out: Spn(c) MIC
[16] = in vivo strain, read-out: Spn(b) MIC
[17] = ATCC29213, Staphylococcus aureus, in vivo strain, ATCC 29213, read-out: Sau(d) MIC
[18] = MRSA, in vivo strain, MRSA, read-out: Sau(f) MIC
[19] = Neisseria gonorrhoeae, read-out: MIC50
[20] = Neisseria gonorrhoeae, read-out: MIC90

SMILES: C[C@@H]1CN2c3c(cc4c(N5C(=O)OC[C@@H]5C=NO)noc4c3F)CC3(C(=O)NC(=O)NC3=O)[C@H]2[C@H](C)O1 [Example 74, (2R,4S,4aS)-11-fluoro-8-{(4S)-4-[(hydroxyimino)methyl]-2-oxo-1,3-oxazolidin-3-yl}-2,4-dimethyl-1,2,4,4a-tetrahydro-2′H,6H-spiro[1,4-oxazino[4,3-a][1,2]oxazolo[4,5-g]quinoline-5,5′-pyrimidine]-2′,4′,6′(1′H,3′H)-trione]
- MIC (Haemophilus influenzae; [4]): 0.78 µM
- MIC (Klebsiella pneumoniae; [5]): > 200 µM
- MIC (Escherichia coli; K12, read-out: Eco MIC): 100 µM
- MIC (Pseudomonas aeruginosa): > 200 µM
- MIC (Streptococcus pyogenes; Streptococcus pyrgenes): 1.6 µM
- MIC (Streptococcus pneumoniae; [6]): 1.6 µM
- MIC (Streptococcus pneumoniae; [7]): 1.6 µM
- MIC (Staphylococcus aureus; [8]): 6.2 µM
- MIC (Staphylococcus aureus; [9]): 12 µM
- MIC (Staphylococcus aureus; serum, read-out: Sau(f) MIC): 12 µM
- pIC50 [1]: 6.33

SMILES: C[C@@H]1CN2c3c(cc4c(N5C[C@H](C#N)OC5=O)noc4c3F)CC3(C(=O)NC(=O)NC3=O)[C@H]2[C@H](C)O1 [Example 75, (5R)-3-[(2R,4S,4aS)-11-Fluoro-2,4-dimethyl-2′,4′,6′-trioxo-1,1′,2,3′,4,4′,4a,6′-octahydro-2′H,6H-spiro[1,4-oxazino[4,3-a][1,2]oxazolo[4,5-g]quinoline-5,5′-pyrimidin]-8-yl]-2-oxo-1,3-oxazolidine-5-carbonitrile]
- MIC (Haemophilus influenzae; [4]): 0.78 µM
- MIC (Klebsiella pneumoniae; [5]): > 200 µM
- MIC (Escherichia coli; K12, read-out: Eco MIC): 100 µM
- MIC (Pseudomonas aeruginosa): > 200 µM
- MIC (Streptococcus pyogenes; Streptococcus pyrgenes): 0.55 µM
- MIC (Streptococcus pneumoniae; [6]): 0.78 µM
- MIC (Streptococcus pneumoniae; [7]): 1.62 µM
- MIC (Staphylococcus aureus; [8]): 0.28 µM
- MIC (Staphylococcus aureus; [9]): 2.2 µM
- MIC (Staphylococcus aureus; serum, read-out: Sau(f) MIC): 0.39 µM
- pIC50 [1]: 6.15

SMILES: C[C@@H]1CN2c3c(cc4c(N5C[C@@H](C#N)OC5=O)noc4c3F)CC3(C(=O)NC(=O)NC3=O)[C@H]2[C@H](C)O1 [Example 76, (5S)-3-[(2R,4S,4aS)-11-fluoro-2,4-dimethyl-2′,4′,6′-trioxo-1,1′,2,3′,4,4′,4a,6′-octahydro-2′H,6H-spiro[1,4-oxazino[4,3-a][1,2]oxazolo[4,5-g]quinoline-5,5′-pyrimidin]-8-yl]-2-oxo-1,3-oxazolidine-5-carbonitrile]
- MIC (Haemophilus influenzae; [4]): 0.78 µM
- MIC (Klebsiella pneumoniae; [5]): > 200 µM
- MIC (Escherichia coli; K12, read-out: Eco MIC): 50 µM
- MIC (Pseudomonas aeruginosa): > 200 µM
- MIC (Streptococcus pyogenes; Streptococcus pyrgenes): 0.39 µM
- MIC (Streptococcus pneumoniae; [6]): 0.39 µM
- MIC (Streptococcus pneumoniae; [7]): 0.78 µM
- MIC (Staphylococcus aureus; [8]): 0.39 µM
- MIC (Staphylococcus aureus; [9]): 1.6 µM
- MIC (Staphylococcus aureus; serum, read-out: Sau(f) MIC): 0.78 µM
- pIC50 [1]: 6.26

SMILES: C[C@@H]1CN2c3c(cc4c(N5C(=O)OC[C@@H]5[C@@H](C)O)noc4c3F)CC3(C(=O)NC(=O)NC3=O)[C@H]2[C@H](C)O1 [Example 77]
- MIC (Haemophilus influenzae; [4]): 0.78 µM
- MIC (Klebsiella pneumoniae; [5]): > 200 µM
- MIC (Escherichia coli; K12, read-out: Eco MIC): 200 µM
- MIC (Pseudomonas aeruginosa): > 200 µM
- MIC (Streptococcus pyogenes; Streptococcus pyrgenes): 0.78 µM
- MIC (Streptococcus pneumoniae; [6]): 0.78 µM
- MIC (Streptococcus pneumoniae; [7]): 0.78 µM
- MIC (Staphylococcus aureus; [8]): 3.1 µM
- MIC (Staphylococcus aureus; [9]): 12 µM
- MIC (Staphylococcus aureus; serum, read-out: Sau(f) MIC): 6.2 µM
- pIC50 [1]: 6.28

SMILES: C[C@@H]1CN2c3c(cc4c(N5C(=O)O[C@H](C)[C@@H]5CF)noc4c3F)CC3(C(=O)NC(=O)NC3=O)[C@H]2[C@H](C)O1 [Example 78, (2R,4S,4aS)-11-Fluoro-8-((4R,5R)-4-(fluoromethyl)-5-methyl-2-oxooxazolidin-3-yl)-2,4-dimethyl-2,4,4a,6-tetrahydro-1H,1′H-spiro[isoxazolo[4,5-g][1,4]oxazino[4,3-a]quinoline-5,5′-pyrimidine]-2′,4′,6′(3′H)-trione]
- MIC (Haemophilus influenzae; [10]): 2 µg/mL
- MIC (Klebsiella pneumoniae; [11]): > 64 µg/mL
- MIC (Klebsiella pneumoniae; [12]): > 64 µg/mL
- MIC (Escherichia coli; [13]): 16 µg/mL
- MIC (Escherichia coli; [14]): 32 µg/mL
- MIC (Pseudomonas aeruginosa; Pseudomonoas aeruginosa): > 64 µg/mL
- MIC (Streptococcus pyogenes; Streptococcus pyrogenes): 1 µg/mL
- MIC (Streptococcus pneumoniae; [15]): 2 µg/mL
- MIC (Streptococcus pneumoniae; [16]): 2 µg/mL
- MIC (Staphylococcus aureus; [17]): 1 µg/mL
- MIC (Staphylococcus aureus; [18]): 1 µg/mL
- MIC (Staphylococcus aureus; [9]): 2 µg/mL
- pIC50 [1]: 6.36

SMILES: COC[C@H]1[C@@H](C)OC(=O)N1c1noc2c(F)c3c(cc12)CC1(C(=O)NC(=O)NC1=O)[C@H]1[C@H](C)O[C@H](C)CN31 [Example 79, (2R,4S,4aS)-11-fluoro-8-((4S,5R)-4-(methoxymethyl)-5-methyl-2-oxooxazolidin-3-yl)-2,4-dimethyl-2,4,4a,6-tetrahydro-1H,1′H-spiro[isoxazolo[4,5-g][1,4]oxazino[4,3-a]quinoline-5,5′-pyrimidine]-2′,4′,6′(3′H)-trione]
- MIC (Haemophilus influenzae; [10]): 0.5 µg/mL
- MIC (Klebsiella pneumoniae; [11]): > 64 µg/mL
- MIC (Klebsiella pneumoniae; [12]): > 64 µg/mL
- MIC (Escherichia coli; [13]): 32 µg/mL
- MIC (Escherichia coli; [14]): 64 µg/mL
- MIC (Pseudomonas aeruginosa; Pseudomonoas aeruginosa): > 64 µg/mL
- MIC (Streptococcus pyogenes; Streptococcus pyrogenes): 1 µg/mL
- MIC (Streptococcus pneumoniae; [15]): 1 µg/mL
- MIC (Streptococcus pneumoniae; [16]): 2 µg/mL
- MIC (Staphylococcus aureus; [17]): 1 µg/mL
- MIC (Staphylococcus aureus; [18]): 1 µg/mL
- MIC (Staphylococcus aureus; [9]): 2 µg/mL
- pIC50 [1]: < 5.68

SMILES: COC[C@@H]1[C@@H](C)OC(=O)N1c1noc2c(F)c3c(cc12)CC1(C(=O)NC(=O)NC1=O)[C@H]1[C@H](C)O[C@H](C)CN31 [Example 80, (2R,4S,4aS)-11-fluoro-8-((4R,5R)-4-(methoxymethyl)-5-methyl-2-oxooxazolidin-3-yl)-2,4-dimethyl-2,4,4a,6-tetrahydro-1H,1′H-spiro[isoxazolo[4,5-g][1,4]oxazino[4,3-a]quinoline-5,5′-pyrimidine]-2′,4′,6′(3′H)-trione]
- MIC (Haemophilus influenzae; [10]): 1 µg/mL
- MIC (Klebsiella pneumoniae; [11]): > 64 µg/mL
- MIC (Klebsiella pneumoniae; [12]): > 64 µg/mL
- MIC (Escherichia coli; [13]): > 64 µg/mL
- MIC (Escherichia coli; [14]): > 64 µg/mL
- MIC (Pseudomonas aeruginosa; Pseudomonoas aeruginosa): > 64 µg/mL
- MIC (Streptococcus pyogenes; Streptococcus pyrogenes): 16 µg/mL
- MIC (Streptococcus pneumoniae; [15]): 32 µg/mL
- MIC (Streptococcus pneumoniae; [16]): 64 µg/mL
- MIC (Staphylococcus aureus; [17]): 16 µg/mL
- MIC (Staphylococcus aureus; [18]): 16 µg/mL
- MIC (Staphylococcus aureus; [9]): 32 µg/mL
- pIC50 [1]: 6.77

SMILES: CC[C@H]1OC(=O)[C@H](C)[C@@H](O[C@H]2C[C@@](C)(OC)[C@@H](O)[C@H](C)O2)[C@H](C)[C@@H](O[C@@H]2O[C@H](C)C[C@H](N(C)C)[C@H]2O)[C@](C)(O)C[C@@H](C)CN(C)[C@H](C)[C@@H](O)[C@]1(C)O [azithromycin, reference compound]
- MIC50 (Neisseria gonorrhoeae; [19]): 0.25 µg/mL (≈ 0.334 µM)
- MIC90 (Neisseria gonorrhoeae; [20]): 0.5 µg/mL (≈ 0.668 µM)

SMILES: C=CC1=C(C(=O)O)N2C(=O)[C@@H](NC(=O)/C(=N\OCC(=O)O)c3csc(N)n3)[C@H]2SC1 [cefixime, reference compound]
- MIC50 (Neisseria gonorrhoeae): 0.03 µg/mL (≈ 0.0662 µM)
- MIC90 (Neisseria gonorrhoeae): 0.06 µg/mL (≈ 0.132 µM)

SMILES: CO/N=C(\C(=O)N[C@@H]1C(=O)N2C(C(=O)O)=C(CSc3nc(=O)c(O)nn3C)CS[C@H]12)c1csc(N)n1 [ceftriaxone, reference compound]
- MIC50 (Neisseria gonorrhoeae): 0.015 µg/mL (≈ 0.027 µM)

SMILES: CO/N=C(\C(=O)N[C@@H]1C(=O)N2C(C(=O)O)=C(CSc3nc(=O)c(O)nn3C)CS[C@H]12)c1csc(N)n1 [ceftriazone, reference compound]
- MIC90 (Neisseria gonorrhoeae): 0.06 µg/mL (≈ 0.108 µM)

SMILES: C[C@H]1COc2c(N3CCN(C)CC3)c(F)cc3c(=O)c(C(=O)O)cn1c23 [levofloxacin]
- minimum bactericidal concentrations (MBCs) relative to the MIC [2]: ≤ 2 fold
- change in susceptibility of Example 5-selected variants [3]: ≤ 4 fold

SMILES: CC(=O)NC[C@H]1CN(c2ccc(N3CCOCC3)c(F)c2)C(=O)O1 [linezolid]
- change in susceptibility of Example 5-selected variants [3]: ≤ 4 fold

SMILES: CC1(C)S[C@@H]2[C@H](NC(=O)Cc3ccccc3)C(=O)N2[C@H]1C(=O)O [penicillin, reference compound]
- MIC50 (Neisseria gonorrhoeae; [19]): 2 µg/mL (≈ 5.98 µM)
- MIC90 (Neisseria gonorrhoeae; [20]): > 2 µg/mL

SMILES: CN(C)[C@@H]1C(=O)C(C(N)=O)=C(O)[C@@]2(O)C(=O)C3=C(O)c4c(O)cccc4[C@@](C)(O)[C@H]3C[C@@H]12 [tetracycline, reference compound]
- MIC50 (Neisseria gonorrhoeae): 1 µg/mL (≈ 2.25 µM)
- MIC90 (Neisseria gonorrhoeae): 2 µg/mL (≈ 4.5 µM)

SMILES: CN[C@H](CC(C)C)C(=O)N[C@H]1C(=O)N[C@@H](CC(N)=O)C(=O)N[C@H]2C(=O)N[C@H]3C(=O)N[C@H](C(=O)N[C@H](C(=O)O)c4cc(O)cc(O)c4-c4cc3ccc4O)[C@H](O)c3ccc(c(Cl)c3)Oc3cc2cc(c3O[C@@H]2O[C@H](CO)[C@@H](O)[C@H](O)[C@H]2O[C@H]2C[C@](C)(N)[C@H](O)[C@H](C)O2)Oc2ccc(cc2Cl)[C@H]1O [vancomycin]
- minimum bactericidal concentrations (MBCs) relative to the MIC [2]: ≤ 2 fold
- change in susceptibility of Example 5-selected variants [3]: ≤ 4 fold
